{"source": "patent US7138151B2", "about": "“Calcium-fortified acidic beverages” (Unilab Pharmatech, Ltd., priority 2002, dated 2006)", "origin": "cited, not measured here", "conditions": "initially clear metastable solution from citric acid and calcium base", "data": [{"smiles": "O=C([O-])CC(O)(CC(=O)[O-])C(=O)[O-].O=C([O-])CC(O)(CC(=O)[O-])C(=O)[O-].[Ca+2].[Ca+2].[Ca+2]", "note": "[in-situ solubilized calcium citrate, calcium citrate]", "values": [{"measurement": "time at which calcium citrate starts to precipitate out of solution", "result": "≤ 24", "unit": "h"}]}]}
